Measurements published in the CheMixHub viscosity set.
Where “and” joins values, the source holds several entries; their conditions need not be identical. Equal entries are not always repeated. ± gives the uncertainty stated by the source.

Assay: xn = mol fraction of the nth substance listed

O=CO + CN(C)C=O
303.15 K, 101 kPa
Settings	viscosity [mPa·s]
x1 = 0.1513	0.848 ± 0.017
x1 = 0.2841	0.986 ± 0.02
x1 = 0.4038	1.16 ± 0.024
x1 = 0.6144	1.45 ± 0.029
x1 = 0.7869	1.58 ± 0.032
x1 = 0.8657	1.58 ± 0.032

O=CO + NC=O
viscosity [mPa·s]
Settings	298.15 K	303.15 K	308.15 K	313.15 K
101 kPa, x2 = 0.1	1.946 ± 0.059	–	–	1.429 ± 0.034
101 kPa, x2 = 0.2005	2.316 ± 0.079	–	–	1.685 ± 0.047
101 kPa, x2 = 0.3015	2.557 ± 0.093	–	–	1.849 ± 0.055
101 kPa, x2 = 0.4	2.85 ± 0.11	–	–	2.065 ± 0.066
101 kPa, x2 = 0.5002	3.057 ± 0.12	–	–	2.23 ± 0.075
101 kPa, x2 = 0.6001	3.196 ± 0.13	–	–	2.31 ± 0.079
101 kPa, x2 = 0.7	3.286 ± 0.14	–	–	2.342 ± 0.081
101 kPa, x2 = 0.8001	3.314 ± 0.14	–	–	2.355 ± 0.082
101 kPa, x2 = 0.9	3.341 ± 0.14	–	–	2.368 ± 0.083
101.33 kPa, x2 = 0.0748	1.77 ± 0.09	1.58 ± 0.08	1.45 ± 0.07	1.33 ± 0.07
101.33 kPa, x2 = 0.1535	2.01 ± 0.1	1.79 ± 0.09	1.65 ± 0.08	1.52 ± 0.08
101.33 kPa, x2 = 0.2286	2.25 ± 0.11	2 ± 0.1	1.83 ± 0.09	1.68 ± 0.08
101.33 kPa, x2 = 0.3078	2.5 ± 0.13	2.21 ± 0.11	2.02 ± 0.1	1.84 ± 0.09
101.33 kPa, x2 = 0.3891	2.81 ± 0.14	2.47 ± 0.12	2.26 ± 0.11	2.07 ± 0.1
101.33 kPa, x2 = 0.4554	2.86 ± 0.14	2.52 ± 0.13	2.3 ± 0.12	2.1 ± 0.11
101.33 kPa, x2 = 0.5248	2.98 ± 0.15	2.62 ± 0.13	2.39 ± 0.12	2.18 ± 0.11
101.33 kPa, x2 = 0.6239	3.06 ± 0.15	2.69 ± 0.14	2.46 ± 0.12	2.24 ± 0.11
101.33 kPa, x2 = 0.6923	3.09 ± 0.16	2.72 ± 0.14	2.48 ± 0.12	2.25 ± 0.11
101.33 kPa, x2 = 0.7982	3.13 ± 0.16	2.74 ± 0.14	2.49 ± 0.13	2.26 ± 0.11
101.33 kPa, x2 = 0.8449	3.12 ± 0.16	2.73 ± 0.14	2.48 ± 0.12	2.26 ± 0.11
101.33 kPa, x2 = 0.9202	3.11 ± 0.16	2.72 ± 0.14	2.47 ± 0.12	2.25 ± 0.11

CCCCCBr + ClC(Cl)(Cl)Cl
viscosity [mPa·s], 101 kPa
Settings	293.15 K	303.15 K	313.15 K	323.15 K
x1 = 0.13	0.925 ± 0.02	0.81 ± 0.017	0.712 ± 0.015	0.633 ± 0.014
x1 = 0.273	0.887 ± 0.019	0.78 ± 0.017	0.692 ± 0.015	0.62 ± 0.013
x1 = 0.429	0.863 ± 0.019	0.76 ± 0.016	0.675 ± 0.015	0.602 ± 0.013
x1 = 0.601	0.841 ± 0.018	0.742 ± 0.016	0.66 ± 0.014	0.592 ± 0.013

O=[N+]([O-])[O-].O=[N+]([O-])[O-].[Ba+2] + N
293.15 K, 101 kPa
Settings	viscosity [mPa·s]
x1 = 0.06	0.171 ± 0.004
x1 = 0.13	0.24 ± 0.006
x1 = 0.28	0.366 ± 0.009
x1 = 0.58	0.81 ± 0.02

CC(Cl)(Cl)Cl + C1COCCO1
101.33 kPa
Settings	viscosity
298.15 K, x1 = 0.102	1.141 ± 0.011 mPa·s
298.15 K, x1 = 0.201	1.097 ± 0.01 mPa·s
298.15 K, x1 = 0.3	1.057 ± 0.01 mPa·s
298.15 K, x1 = 0.4	1.016 ± 0.0096 mPa·s
298.15 K, x1 = 0.5	0.9762 ± 0.0093 mPa·s and 0.9767 ± 0.0093 mPa·s
298.15 K, x1 = 0.599	0.938 ± 0.009 mPa·s
298.15 K, x1 = 0.7	0.9003 ± 0.0086 mPa·s
298.15 K, x1 = 0.8	0.8635 ± 0.0083 mPa·s
298.15 K, x1 = 0.862	0.8404 ± 0.0081 mPa·s
303.15 K, x2 = 0.0725	0.7541 ± 0.0055 mPa·s
303.15 K, x2 = 0.1135	0.771 ± 0.0056 mPa·s
303.15 K, x2 = 0.2041	0.8089 ± 0.0059 mPa·s
303.15 K, x2 = 0.336	0.8625 ± 0.0063 mPa·s
303.15 K, x2 = 0.4193	0.8943 ± 0.0065 mPa·s
303.15 K, x2 = 0.5168	0.9291 ± 0.0067 mPa·s
303.15 K, x2 = 0.6428	0.97 ± 0.007 mPa·s
303.15 K, x2 = 0.7459	1.002 ± 0.0072 mPa·s
303.15 K, x2 = 0.8153	1.023 ± 0.0074 mPa·s
303.15 K, x2 = 0.9277	1.059 ± 0.0077 mPa·s

O=CO + O=[N+]([O-])c1ccccc1
viscosity [mPa·s], 101 kPa
Settings	x1 = 0.1791	x1 = 0.2956	x1 = 0.4132	x1 = 0.5229	x1 = 0.6396	x1 = 0.7402	x1 = 0.8361
298.15 K	1.676 ± 0.044	1.636 ± 0.043	1.604 ± 0.043	1.591 ± 0.042	1.593 ± 0.042	1.592 ± 0.042	1.576 ± 0.042
323.15 K	1.114 ± 0.029	1.084 ± 0.029	1.054 ± 0.028	1.043 ± 0.028	1.025 ± 0.027	1.029 ± 0.027	1.005 ± 0.027

CC(Cl)(Cl)Cl + CCCCCC
303.15 K, 101 kPa
Settings	viscosity [mPa·s]
x1 = 0.1033	0.3166 ± 0.0083
x1 = 0.2726	0.3777 ± 0.0098
x1 = 0.3375	0.4016 ± 0.01
x1 = 0.4011	0.4253 ± 0.011
x1 = 0.5547	0.4864 ± 0.013
x1 = 0.5981	0.5047 ± 0.013
x1 = 0.6578	0.5318 ± 0.014
x1 = 0.7595	0.582 ± 0.015
x1 = 0.8388	0.6246 ± 0.016
x1 = 0.9378	0.6833 ± 0.018

CC(Cl)(Cl)Cl + CC(C)CCO
298.15 K, 101 kPa
Settings	viscosity [mPa·s]
x1 = 0.113	3.084 ± 0.023
x1 = 0.1681	2.72 ± 0.021
x1 = 0.3013	2.01 ± 0.016
x1 = 0.3885	1.663 ± 0.013
x1 = 0.509	1.339 ± 0.011
x1 = 0.5929	1.169 ± 0.01
x1 = 0.692	1.035 ± 0.009
x1 = 0.7926	0.913 ± 0.009
x1 = 0.8991	0.817 ± 0.008

CC(Cl)(Cl)Cl + Cc1ccccc1
303.15 K, 101 kPa
Settings	viscosity [mPa·s]
x1 = 0.1635	0.5716 ± 0.015
x1 = 0.2871	0.6046 ± 0.016
x1 = 0.3684	0.6248 ± 0.016
x1 = 0.4152	0.6363 ± 0.016
x1 = 0.4825	0.6505 ± 0.017
x1 = 0.5694	0.6666 ± 0.017
x1 = 0.6729	0.6834 ± 0.018
x1 = 0.763	0.6958 ± 0.018
x1 = 0.8412	0.7049 ± 0.018
x1 = 0.9286	0.7156 ± 0.018

CC(O)c1ccccc1 (stereo not drawn) + c1ccccc1
293.15 K, 101.32 kPa
Settings	viscosity [mPa·s]
x1 = 0.01616	0.6575 ± 0.13
x1 = 0.05419	0.708 ± 0.14
x1 = 0.09606	0.7832 ± 0.16
x1 = 0.1306	0.85 ± 0.17
x1 = 0.1766	0.9508 ± 0.19

O=CO + CC#N
303.15 K, 101 kPa
Settings	viscosity [mPa·s]
x1 = 0.0912	0.386 ± 0.0081
x1 = 0.1824	0.422 ± 0.0088
x1 = 0.2772	0.468 ± 0.0097
x1 = 0.3728	0.523 ± 0.011
x1 = 0.4721	0.597 ± 0.012
x1 = 0.5735	0.691 ± 0.014
x1 = 0.6751	0.801 ± 0.016
x1 = 0.7806	0.962 ± 0.019
x1 = 0.8891	1.17 ± 0.024

CC(Cl)(Cl)Cl + CCCO
298.15 K, 101 kPa
Settings	viscosity [mPa·s]
x1 = 0.0572	1.789 ± 0.014
x1 = 0.1154	1.667 ± 0.013
x1 = 0.193	1.506 ± 0.012
x1 = 0.3007	1.318 ± 0.011
x1 = 0.3956	1.165 ± 0.01
x1 = 0.49	1.045 ± 0.009
x1 = 0.6367	0.909 ± 0.009
x1 = 0.7983	0.824 ± 0.008
x1 = 0.8861	0.799 ± 0.008

O=CO + CC(C)=O
viscosity [mPa·s], 101 kPa
Settings	x1 = 0.1014	x1 = 0.2068	x1 = 0.299	x1 = 0.4009	x1 = 0.4945	x1 = 0.6083	x1 = 0.6998	x1 = 0.8014	x1 = 0.8947
298.15 K	0.3575 ± 0.0096	0.4002 ± 0.011	0.4482 ± 0.012	0.5192 ± 0.014	0.5972 ± 0.016	0.7312 ± 0.019	0.8622 ± 0.023	1.053 ± 0.028	1.287 ± 0.034
308.15 K	0.3251 ± 0.0088	0.3639 ± 0.0098	0.4063 ± 0.011	0.4659 ± 0.012	0.5315 ± 0.014	0.642 ± 0.017	0.7455 ± 0.02	0.906 ± 0.024	1.079 ± 0.029
318.15 K	0.2954 ± 0.008	0.3287 ± 0.0089	0.3657 ± 0.0098	0.4163 ± 0.011	0.4726 ± 0.013	0.5609 ± 0.015	0.6457 ± 0.017	0.7719 ± 0.021	0.9139 ± 0.024

CC(Cl)(Cl)Cl + CC(C)=O
298.15 K, 101.33 kPa
Settings	viscosity [mPa·s]
x1 = 0.102	0.3356 ± 0.0039
x1 = 0.2	0.3677 ± 0.0042
x1 = 0.302	0.4042 ± 0.0045
x1 = 0.401	0.4432 ± 0.0048
x1 = 0.501	0.4862 ± 0.0052
x1 = 0.549	0.5085 ± 0.0054
x1 = 0.551	0.5098 ± 0.0054
x1 = 0.601	0.5341 ± 0.0056
x1 = 0.649	0.5591 ± 0.0058
x1 = 0.651	0.56 ± 0.0058
x1 = 0.701	0.5875 ± 0.0061
x1 = 0.75	0.6158 ± 0.0063
x1 = 0.794	0.6443 ± 0.0066
x1 = 0.852	0.6824 ± 0.0069
